This note sets out measurements from publication PMC12624743 (ACS Infectious Diseases, 2025).

As usually defined, the MIC is the lowest concentration that inhibits growth of the organism. Broadly, the IC50 is the concentration that inhibits the measured activity by half.

≈ marks a conversion by molar mass, not a printed value.

Test [1] has as its system N. gonorrhoeae FA1090E-1 (GyrA^A92T/ParC^WT). Put plainly: MIC by agar dilution, GyrA^A92T strain. To be noted: Neisseria gonorrhoeae. It is filed as cell-based. The protocol: The purified isolate was confirmed to harbor GyrA^A92T as the single target mutation by DNA sequencing. This strain was designated FA1090E-1 (GyrA^A92T).
Minimum inhibitory concentration (MIC) of test compounds was determined by an agar dilution method, the reference testing method for N. gonorrhoeae according to the standards of the Clinical and Laboratory Standards Institute and the CDC.
In general terms: In agar dilution, organisms are placed on agar that contains the substance at set levels.

Test [2] addresses T1, N. gonorrhoeae gyrase GyrA^S91F/D95G (Neisseria gonorrhoeae, UniProt P48371, D95G/S91F).
T1 construct: His; made in house
Put plainly: DNA cleavage assay, GyrA^S91F/D95G gyrase. It is filed as biochemical. The protocol:
Some experiments replaced MgCl2 with an equivalent concentration of CaCl2 (10 mM), or 1.5 mM ATP was added to assay mixtures.
Reactions were incubated at 37 °C for 30 min with WT and mutant (GyrA^D90N, GyrA^A92T, GyrA^S91F, GyrA^D95G, or GyrA^S91F/D95G) N. gonorrhoeae gyrase, 10 min with WT N. gonorrhoeae topoisomerase IV, and 20 min with mutant (ParC^D86N, ParC^S88P, ParC^S87N, or ParC^E91G) N. gonorrhoeae topoisomerase IV. Enzyme-DNA cleavage complexes were trapped by adding 2 μL of 5% SDS followed by 2 μL of 250 mM EDTA (pH 8.0). Proteinase K was added (2 μL of a 0.8 mg/mL solution), and reaction mixtures were incubated at 45 °C for 30 min to digest the enzyme. Samples were mixed with 2 μL of loading buffer and heated at 45 °C for 2 min prior to electrophoresis in 1% agarose gels in 40 mM Tris-acetate (pH 8.3), and 2 mM EDTA containing 0.5 μg/mL ethidium bromide. DNA bands were visualized by midrange ultraviolet light and quantified using an Alpha Innotech digital imaging system (Protein Simple). Single-stranded DNA cleavage was monitored by the conversion of negatively supercoiled to nicked plasmid molecules.

The target of test [3] is T2, WT N. gonorrhoeae topoisomerase IV (Neisseria gonorrhoeae, UniProt P48374).
T2 sequence (P48374 1-768): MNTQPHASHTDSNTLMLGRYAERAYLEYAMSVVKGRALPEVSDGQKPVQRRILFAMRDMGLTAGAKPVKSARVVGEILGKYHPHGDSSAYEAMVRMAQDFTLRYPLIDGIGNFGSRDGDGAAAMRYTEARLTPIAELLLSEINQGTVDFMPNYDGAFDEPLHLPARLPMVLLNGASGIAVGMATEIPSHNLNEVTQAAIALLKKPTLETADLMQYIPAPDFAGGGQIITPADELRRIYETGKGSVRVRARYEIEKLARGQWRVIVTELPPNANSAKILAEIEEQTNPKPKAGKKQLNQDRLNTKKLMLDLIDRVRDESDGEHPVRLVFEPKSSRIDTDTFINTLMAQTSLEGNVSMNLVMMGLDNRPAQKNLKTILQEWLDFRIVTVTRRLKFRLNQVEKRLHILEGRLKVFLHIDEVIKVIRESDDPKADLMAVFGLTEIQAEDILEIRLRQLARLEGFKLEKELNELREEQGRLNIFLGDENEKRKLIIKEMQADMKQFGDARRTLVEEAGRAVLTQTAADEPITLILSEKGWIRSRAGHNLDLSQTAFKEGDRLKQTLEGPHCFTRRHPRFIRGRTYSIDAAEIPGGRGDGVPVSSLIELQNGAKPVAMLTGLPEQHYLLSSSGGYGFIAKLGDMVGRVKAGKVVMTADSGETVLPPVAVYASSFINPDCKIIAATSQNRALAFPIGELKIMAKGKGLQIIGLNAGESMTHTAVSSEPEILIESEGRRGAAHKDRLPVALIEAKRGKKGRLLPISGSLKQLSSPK
In words: Topoisomerase IV-catalyzed DNA decatenation assay, WT. Type of test: biochemical. Also on record: His; made in house. Here is the method:
All proteins were His-tagged. N. gonorrhoeae WT gyrase (GyrA, GyrB) and topoisomerase IV (ParC, ParE) subunits as well as mutant GyrA^D90N, GyrA^A92T, GyrA^S91F, and GyrA^S91F/D95G gyrase and ParC^D86N and ParC^S88P topoisomerase IV were prepared as described previously. , N. gonorrhoeae mutant GyrA^D95G gyrase and mutant ParC^S87N and ParC^E91G topoisomerase IV were generated using a QuickChange II XL site-directed mutagenesis kit (Agilent Technologies) with custom primers for the desired mutations. Mutant N. gonorrhoeae GyrA and ParC subunits were expressed and purified as described by Ashley et al. with the following modifications to optimize protein expression and lysis: (1) GyrA^D95G was expressed for 2.5 h and ParC^S87N and ParC^E91G were expressed for 3 h before harvesting, and (2) cells were lysed by sonication using a digital sonifier (Branson). The identities of all constructs were confirmed by DNA sequencing, and all enzymes were stored at −80 °C. In all assays, N. gonorrhoeae gyrase or topoisomerase IV was used as a 1:1 GyrA:GyrB or ParC:ParE mixture, respectively, and the stated enzyme concentration reflects that of the holoenzyme (A2B2). […]

The test system of test [4] is N. gonorrhoeae FA1090 (ATCC 700825). In words: MIC by agar dilution, parental strain FA1090. It is filed as cell-based. To be noted: Neisseria gonorrhoeae, ATCC700825, parental strain FA1090, GyrA WT / ParC WT. Here is the method:
A series of isogenic N. gonorrhoeae strains was constructed that carried the specific target mutations GyrA^A92T or GyrA^D90N either alone or in combination with ParC^D86N or GyrA^S91F/D95G in a ciprofloxacin-susceptible strain, FA1090 (ATCC 700825).
All N. gonorrhoeae isolates were cultured and grown on GC agar plates or in fastidious broth (Remel, 07664). Minimum inhibitory concentration (MIC) of test compounds was determined by an agar dilution method, the reference testing method for N. gonorrhoeae according to the standards of the Clinical and Laboratory Standards Institute and the CDC. MIC values were determined after incubation at 37 °C for 48 h in 5% CO2.

T1 sequence (P48371 whole entry S91F/D95G): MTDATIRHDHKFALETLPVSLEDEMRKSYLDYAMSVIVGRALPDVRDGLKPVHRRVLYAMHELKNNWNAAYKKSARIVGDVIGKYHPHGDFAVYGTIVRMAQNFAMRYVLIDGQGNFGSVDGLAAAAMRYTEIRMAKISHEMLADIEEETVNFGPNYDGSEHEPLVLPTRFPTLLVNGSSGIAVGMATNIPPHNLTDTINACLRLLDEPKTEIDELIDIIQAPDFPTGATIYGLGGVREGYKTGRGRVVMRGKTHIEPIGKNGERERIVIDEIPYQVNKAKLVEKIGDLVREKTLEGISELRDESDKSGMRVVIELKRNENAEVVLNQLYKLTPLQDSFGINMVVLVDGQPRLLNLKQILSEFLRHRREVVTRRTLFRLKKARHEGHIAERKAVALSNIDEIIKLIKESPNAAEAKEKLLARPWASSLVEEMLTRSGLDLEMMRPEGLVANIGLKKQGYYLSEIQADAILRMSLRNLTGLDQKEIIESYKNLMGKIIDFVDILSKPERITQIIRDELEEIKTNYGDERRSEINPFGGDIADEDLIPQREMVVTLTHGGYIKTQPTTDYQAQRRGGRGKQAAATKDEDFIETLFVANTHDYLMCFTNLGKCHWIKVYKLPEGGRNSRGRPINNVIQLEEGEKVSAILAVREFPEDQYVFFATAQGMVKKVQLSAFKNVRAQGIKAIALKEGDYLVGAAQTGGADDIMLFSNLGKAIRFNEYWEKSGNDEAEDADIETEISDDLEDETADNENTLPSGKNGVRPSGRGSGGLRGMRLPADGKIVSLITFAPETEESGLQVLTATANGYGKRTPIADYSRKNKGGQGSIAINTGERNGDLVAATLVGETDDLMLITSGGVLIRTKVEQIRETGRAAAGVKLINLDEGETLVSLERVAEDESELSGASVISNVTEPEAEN
T1 sequence (P22118 whole entry partner): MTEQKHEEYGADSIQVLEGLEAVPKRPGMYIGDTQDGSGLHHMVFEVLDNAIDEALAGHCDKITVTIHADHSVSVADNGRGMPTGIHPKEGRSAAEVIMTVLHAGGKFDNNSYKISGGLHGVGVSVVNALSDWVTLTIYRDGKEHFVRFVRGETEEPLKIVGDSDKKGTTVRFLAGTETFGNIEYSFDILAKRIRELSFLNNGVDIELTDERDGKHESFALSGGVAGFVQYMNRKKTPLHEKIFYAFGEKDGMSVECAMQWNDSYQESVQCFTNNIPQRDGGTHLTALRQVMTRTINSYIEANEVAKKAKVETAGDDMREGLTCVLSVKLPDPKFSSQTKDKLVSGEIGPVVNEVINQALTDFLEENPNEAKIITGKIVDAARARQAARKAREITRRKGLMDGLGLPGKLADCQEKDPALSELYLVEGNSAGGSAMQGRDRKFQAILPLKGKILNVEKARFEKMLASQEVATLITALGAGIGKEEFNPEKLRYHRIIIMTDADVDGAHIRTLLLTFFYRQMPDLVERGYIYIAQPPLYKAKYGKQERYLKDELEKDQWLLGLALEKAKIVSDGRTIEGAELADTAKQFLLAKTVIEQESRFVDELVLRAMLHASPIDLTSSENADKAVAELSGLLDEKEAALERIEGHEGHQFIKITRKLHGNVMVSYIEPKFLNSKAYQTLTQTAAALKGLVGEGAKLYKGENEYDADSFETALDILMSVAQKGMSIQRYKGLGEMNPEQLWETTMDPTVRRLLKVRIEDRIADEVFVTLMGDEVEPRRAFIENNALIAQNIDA

As to `O=c1ccc2ncc(=O)n3c2n1C[C@H]3CN1CCC(NCc2cc3c(cn2)OCCC3)CC1` [gepotidacin], the minimum inhibitory concentration (MIC) amounted to 2 µg/mL (≈ 4.46 µM) in test [1] and 0.125 µg/mL in test [4]. The “Adj-Max Cleavage, single-stranded DNA breaks” value in test [2] came to 3.9%. In addition, in test [2] (GyrA S91F/D95G gyrase, read-out: CC50, single-stranded DNA cleavage), the EC50 came out at 800 nM. Moreover, the “fold decrease of adjusted maximal DNA cleavage vs WT” value in test [2] (GyrA S91F/D95G vs WT) is on record as approximately 4.4 fold. The concentration for half-maximal inhibition (IC50) in test [3] is 1800 ± 1300 nM.
